Like-named read-outs stand apart in the source and are kept apart here.
Key:
Assay type in all cases: cell-based
P. falciparum W2 = experiment: Antiplasmodial susceptibility assay (pLDH), CQ-resistant W2 strain; settings: Plasmodium falciparum, read-out: IC50 P. falciparum W2
Protocol: (§1) Continuous in vitro Plasmodium falciparum cultures were carried out according to Trager and Jensen with slight modifications.^[ [38] ^] The CQ‐susceptible strain D10 and the CQ‐resistant strain W2 were maintained at 5% hematocrit (human type A‐positive red blood cells) in RPMI 1640 (EuroClone, Celbio) medium with the addition of 1% AlbuMax (Invitrogen, Milan, Italy), 0.01% hypoxanthine, 20 mM HEPES (at pH 7.4), and 2 mM glutamine. All the cultures were maintained at 37 °C in a low‐oxygen atmosphere consisting of 1% O2, 5% CO2, and 94% N2. Compounds were dissolved in DMSO to a stock concentration of 10 mg/ml and then diluted with complete medium to achieve the desired concentrations (final DMSO concentration <1%, which is nontoxic to the parasite). Derivatives were placed in 96‐well flat‐bottomed microplates in duplicate, and seven 1:2 serial dilutions were made directly in the plate in a volume of 100 μL. Asynchronous cultures with parasitemia of 1%–1.5% (assessed through Giemsa stained blood smears) and 1% final hematocrit were aliquoted into the plates and incubated for 72 h at 37 °C in a final volume of 200 μL/well. Uninfected erythrocytes at 2% hematocrit were used as blank. The antimalarial CQ was tested against the parasite strains as a positive control of inhibition. Parasite growth was determined spectrophotometrically (OD650) by measuring the activity of the parasite lactate dehydrogenase (pLDH), according to a modified version of the method of Makler in control and drug‐treated cultures.^[ [39] ^] The antimalarial activity was expressed as 50% inhibitory concentrations (IC50). The IC50 values were extrapolated from nonlinear regression analysis of the concentration–response curve, using the software Gen5 1.10 provided with the Synergy 4 (BioTek) reader. Each IC50 value was the mean of three independent experiments run in duplicates.

L. tropica promastigotes = experiment: Antileishmanial evaluation (MTT), promastigotes; settings: Leishmania tropica, 72 h, NA = not active
Protocol: (§2) The promastigote stage of L. infantum strain MHOM/TN/80/IPT1 (kindly provided by Dr M. Gramiccia, ISS, Roma) and L. tropica strain (MHOM/IT/2012/ISS3130) were cultured in RPMI 1640 medium (EuroClone) supplemented with 10% heat‐inactivated fetal calf serum (EuroClone), 20 mM Hepes, and 2 mM L‐glutamine at 24 °C. To determine the 50% inhibitory concentration (IC50), the MTT method was used.^[ [40], [41] ^] Compounds were dissolved in DMSO and then diluted with medium to achieve the required concentrations. Drugs were placed in 96 wells round‐bottom microplates and seven serial dilutions made. Amphotericin B was used as reference antiLeishmania drug. Parasites were diluted in complete medium to 5 × 10^6 parasites mL^−1 and 100 μL of the suspension was added to each well. The plates were incubated at 24 °C for 72 h, after the incubation 20 μL of MTT solution (5 mg mL^−1) was added to each well and incubated for additional 3 h. The plates were then centrifuged at 1000 × g for 8 min at room temperature and the supernatants were discarded. The resulting pellets were dissolved in 100 μL of lysing buffer consisting of 20% w/v of a solution of SDS (Sigma), 40% of DMF (Merck) in H2O. The absorbance was measured spectrophotometrically at a test wavelength of 550 nm and a reference wavelength of 650 nm. The results were expressed as IC50 which was the concentration of compound necessary to inhibit parasite growth by 50%; each IC50 value was the mean of separate experiments performed in duplicate.

[1] = tested on: L. infantum promastigotes; experiment: Antileishmanial evaluation (MTT), promastigotes; settings: Leishmania infantum, 72 h, NA = not active
Protocol: as §2

P. falciparum D10 = experiment: Antiplasmodial susceptibility assay (pLDH), CQ-sensitive D10 strain; settings: Plasmodium falciparum, read-out: IC50 P. falciparum D10
Protocol: as §1

[2] = MTT cytotoxicity assay on fibroblasts; settings: human, GM-6114 embryonic human fibroblasts, compounds tested at 10 μM for 48 h, percentage of control, read-out: Cell viability GM‐6114
Protocol: MTT assays: MTT assays were performed using GM‐6114 (embryonic human fibroblast, ATCC, Manassas, VA). The cells were grown in DMEM with 10% FBS, 2 mM glutamine, and 1% penstrep and incubated at 37 °C in 5% CO2 in a humidified environment. All reagents were purchased from EuroClone (Milan, Italy). Briefly, the cell line was plated in 96 well plates at an adequate number to reach 80%–90% of confluence at the end of the assay. 16 h after cell plating, compounds were dissolved in DMSO to give a 10 mM stock solution, diluted in growth medium, and added at a final working concentration of 10 μM. After 48 h of incubation, 30 μL of 3‐(4,5‐dimethyl‐2‐thiazolyl)‐2,5‐diphenyl‐2H‐tetrazolium bromide (MTT) at a concentration of 2 mg mL^−1 in PBS were added in each well. Then, after further 4 h of incubation, the supernatant was removed, and 100 μL/well of DMSO were used to dissolve the formazan precipitate that could be found in vital cells. After 20 min, the results were read at 570 nm by means of a plate reader. The results were expressed as percentage of the control samples in which the cells were incubated with the same amount of DMSO but without compounds. The assays were repeated three times. In each set, every single compound was tested six times. Variation among duplicates was less than 10%.

[3] = CQ-resistant strain W2, 72 h, pLDH readout, mean of three independent experiments in duplicate, NA = not active
[4] = CQ-sensitive strain D10, 72 h, pLDH readout, mean of three independent experiments in duplicate, NA = not active

Compound	IC50 (P. falciparum W2; [3]) [µM]	IC50 (L. tropica promastigotes) [µM]	IC50 [1] [µM]	IC50 (P. falciparum D10; [4]) [µM]	viability at 48 h, 10 μM [2] [%]	IC50 (P. falciparum W2; W2, 72 h) [µM]	IC50 (P. falciparum D10; D10, 72 h) [µM]
COc1ccc(CCNc2[nH]nc(-c3ccccc3)c2C#N)cc1OC [14a, 5‐((3,4‐dimethoxyphenethyl)amino)‐3‐phenyl‐1H‐pyrazole‐4‐carbonitrile]	36.5	55.7	40.1	35.1	87		
N#Cc1c(-c2ccccc2)n[nH]c1N1CCC(c2ccccc2)CC1 [14c, 3‐phenyl‐5‐(4‐phenylpiperidin‐1‐yl)‐1H‐pyrazole‐4‐carbonitrile]	23.4	21.3	22.4	31	76		
COc1ccc(CCNc2[nH]nc(N)c2S(=O)(=O)c2ccccc2)cc1OC [15a, N ^ 5 ‐(3,4‐dimethoxyphenethyl)‐4‐(phenylsulfonyl)‐1H‐pyrazole‐3,5‐diamine]					70		
COc1ccc(CCNc2nc(N)nc(O)c2C#N)cc1OC [16a, 2‐amino‐4‐((3,4‐dimethoxyphenethyl)amino)‐6‐hydroxypyrimidine‐5‐carbonitrile]	31.7			9.24	67		
N#Cc1c(-c2cccc(Br)c2)n[nH]c1Nc1ccccc1 [VIa, reference compound]	21	21.2	17.7	27.8	78		
CCCCN(CCCC)CCCNc1nc(N)nc(O)c1C#N [16e, 2‐amino‐4‐((3‐(dibutylamino)propyl)amino)‐6‐hydroxypyrimidine‐5‐carbonitrile]	45				66		
CCN(CC)CCCC(C)Nc1[nH]nc(-c2ccccc2)c1C#N (centres unmarked) [14f, 5‐((5‐(diethylamino)pentan‐2‐yl)amino)‐3‐phenyl‐1H‐pyrazole‐4‐carbonitrile]	13.4	9.74	11	43.3	58		
CC(C)(C)c1n[nH]c(N2CCC(c3ccccc3)CC2)c1C#N [13c, 3‐(tert‐butyl)‐5‐(4‐phenylpiperidin‐1‐yl)‐1H‐pyrazole‐4‐carbonitrile]	11.1	34.6	30.4	14.9	94		
N#Cc1c(O)nc(N)nc1N1CCOCC1 [16b, 2‐amino‐4‐hydroxy‐6‐morpholinopyrimidine‐5‐carbonitrile]					65		
COc1ccc(CCNc2nc(N)nc(-c3ccccc3)c2C#N)cc1OC [17a, 2‐amino‐4‐((3,4‐dimethoxyphenethyl)amino)‐6‐phenylpyrimidine‐5‐carbonitrile]					46		
N#Cc1c(-c2ccccc2)n[nH]c1N1CCOCC1 [14b, 5‐morpholino‐3‐phenyl‐1H‐pyrazole‐4‐carbonitrile]			75.9		84		
CC(C)(C)c1n[nH]c(N2CCOCC2)c1C#N [13b, 3‐(tert‐butyl)‐5‐morpholino‐1H‐pyrazole‐4‐carbonitrile]					91		
N#Cc1c(-c2ccccc2)nc(N)nc1N1CCOCC1 [17b, 2‐amino‐4‐morpholino‐6‐phenylpyrimidine‐5‐carbonitrile]					66		
CCN(CC)CCCC(C)Nc1ccnc2cc(Cl)ccc12 (centres unmarked) [CQ, chloroquine, reference compound]						0.45	0.04
Nc1n[nH]c(N2CCOCC2)c1S(=O)(=O)c1ccccc1 [15b, 5‐morpholino‐4‐(phenylsulfonyl)‐1H‐pyrazol‐3‐amine]	50.4			49.6	87		
C[C@@H]1[C@H](O)[C@@H](C)/C=C/C=C/C=C/C=C/C=C/C=C/C=C/[C@H](O[C@@H]2O[C@H](C)[C@@H](O)[C@H](N)[C@@H]2O)C[C@@H]2O[C@](O)(C[C@@H](O)C[C@@H](O)[C@H](O)CC[C@@H](O)C[C@@H](O)CC(=O)O[C@H]1C)C[C@H](O)[C@H]2C(=O)O [AmB, amphotericin B, reference compound]		0.29	0.22				
